Reference: PMC8041284, “Tunable Methacrylamides for Covalent Ligand Directed Release Chemistry” (Journal of the American Chemical Society, 2021)
*1 amine or outer side, *2 acyl side, *3 side chain or, on linkers, in order; H or OH if unused. Where a SMILES comes first, the peptide text is derived from it. Bridges are numbered along the chain shown (N, C = ends). [ ]: non-standard residue; d: D form. The star is where a group is joined. pTerphenylCO(4''-OnC5H11) = CCCCCOc1ccc(-c2ccc(-c3ccc(C(=O)*)cc3)cc2)cc1; Orn(4R-OH,5R-OH) = O=C([C@H](C[C@@H](O)[C@@H](O)N[*:3])N[*:1])[*:2]; hTyr(3S-OH,4S-OH) = N[C@H](C(=O)O)[C@H](O)[C@@H](O)c1ccc(O)cc1; Pro(3S-OH,4S-Me) = C[C@H]1CN[C@H](C(=O)O)[C@H]1O; Hyp = O=C(O)[C@@H]1C[C@@H](O)CN1

target: BTK (Homo sapiens, UniProt Q06187); experiment: biochemical; settings: read-out: BTK inhibition (%)
Sequence (Q06187 402-655 limits assumed): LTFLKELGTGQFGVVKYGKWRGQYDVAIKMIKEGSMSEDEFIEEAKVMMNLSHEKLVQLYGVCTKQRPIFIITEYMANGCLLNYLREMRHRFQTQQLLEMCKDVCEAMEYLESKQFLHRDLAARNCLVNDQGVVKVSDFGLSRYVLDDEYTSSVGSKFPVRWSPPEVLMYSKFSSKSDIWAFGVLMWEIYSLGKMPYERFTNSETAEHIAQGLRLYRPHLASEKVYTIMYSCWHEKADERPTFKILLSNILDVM

First: Cc1ccc(NC(=S)NNc2c([N+](=O)[O-])cc(C(F)(F)F)cc2[N+](=O)[O-])cc1Cl [PCM-0215660]
Second: Cc1cccc(C)c1NC1=NCCCS1 [PCM-0064906]
The inhibition at 10 µM of the first is higher: 90.3% for the first, -21.8% for the second.

Compared with `NCC(CC(=O)O)c1ccccc1` (stereo not shown) [PCM-0215126], `O=C(O)CNC(=O)C1C(=O)N(C2CCCCC2)C(=O)N(C2CCCCC2)C1=O` [PCM-0215600] is higher in inhibition at 10 µM: -9.3% for the first, 13.9% for the second.

same assay, conditions: read-out: BTK inhibition (%), 0.75 uM BTK, […] probe 3l, 15 min preincubation

First: CCCCC(=O)OCC(=O)[C@H]1[C@H](C)C[C@H]2[C@@H]3C[C@H](F)C4=CC(=O)C=C[C@]4(C)[C@@]3(F)[C@@H](O)C[C@@]21C [PCM-0216248]
Second: CC1(C)S[C@@H]2[C@H](NC(=O)Cc3ccccc3)C(=O)N2[C@H]1C(=O)O [PCM-0214771]
The inhibition at 10 µM of the first is higher: 2.3% for the first, -10.1% for the second.

Going from `COc1c(O[C@@H]2O[C@H](CO)[C@@H](O)[C@H](O)[C@H]2O)cc2occ(-c3ccc(O)cc3)c(=O)c2c1O` [PCM-0215052] to `OC[C@H]1O[C@@H](Oc2cc3c(O)cc(O)cc3[o+]c2-c2ccc(O)c(O)c2)[C@H](O)[C@@H](O)[C@@H]1O` [PCM-0216543], the inhibition at 10 µM rises from -3.1% to 23.9%.

First: CCCCCOc1ccc(-c2ccc(-c3ccc(C(=O)N[C@H]4C[C@@H](O)[C@@H](O)NC(=O)[C@@H]5[C@@H](O)[C@@H](C)CN5C(=O)[C@H]([C@@H](C)O)NC(=O)[C@H]([C@H](O)[C@@H](O)c5ccc(O)cc5)NC(=O)[C@@H]5C[C@@H](O)CN5C(=O)[C@H]([C@@H](C)O)NC4=O)cc3)cc2)cc1 [PCM-0214798] ({pTerphenylCO(4''-OnC5H11)}-[Orn(4R-OH,5R-OH)]T[Hyp][hTyr(3S-OH,4S-OH)]T[Pro(3S-OH,4S-Me)]; lactam 1-C)
Second: NCCCC[C@H](NC(=O)[C@@H]1CCCN1C(=O)[C@@H]1CSSC[C@H](NC(=O)CNC(=O)CNC(=O)CN)C(=O)N[C@@H](Cc2ccc(O)cc2)C(=O)N[C@@H](Cc2ccccc2)C(=O)N[C@@H](CCC(N)=O)C(=O)N[C@@H](CC(N)=O)C(=O)N1)C(=O)NCC(N)=O [PCM-0216274] (H-GGGCYFQNCPKG-NH2; disulfide 4-9)
The inhibition at 10 µM of the first is higher: 122% for the first, -3.4% for the second.

Going from `CCOC(=O)Nc1ccc(NCc2ccc(F)cc2)nc1N` [PCM-0065288] to `Cc1[nH]c2ccccc2c1CCNCc1ccc(/C=C/C(=O)NO)cc1` [PCM-0095679], the inhibition at 10 µM rises from -8.6% to 0.8%.

First: C=CC(=O)Nc1ccc2ncnc(Nc3cccc(Br)c3)c2c1 [PCM-0095572]
Second: Cc1ccc(NC(=O)c2cccc(C(C)(C)C#N)c2)cc1Nc1ccc2ncn(C)c(=O)c2c1 [PCM-0095483]
The inhibition at 10 µM of the first is higher: 106% for the first, 44.1% for the second.

Compared with `CCOC(=O)C1=C(C)NC(C)=C(C(=O)OC)C1c1cccc(Cl)c1Cl` (stereo not shown) [PCM-0065133], `Cc1c(Cl)cccc1Nc1ccccc1C(=O)O` [PCM-0005612] is lower in inhibition at 10 µM: 17.9% for the first, -6.2% for the second.

Going from `C[C@@H](O[C@H]1OCCN(Cc2n[nH]c(=O)[nH]2)[C@H]1c1ccc(F)cc1)c1cc(C(F)(F)F)cc(C(F)(F)F)c1` [PCM-0214564] to `FC(F)(F)Oc1ccc(-c2ccc3nnc(C(F)(F)F)n3c2)cc1` [PCM-0216074], the inhibition at 10 µM rises from -8.3% to 7.7%.

Going from `Cc1c(-c2ccccc2)oc2c(C(=O)OCCN3CCCCC3)cccc2c1=O` [PCM-0085770] to `COCCCc1sc(-c2ccccc2)nc1C(=O)Nc1ccccc1-c1nc2cc(CN3CCCC3)cnc2s1` [PCM-0215812], the inhibition at 10 µM rises from 12.8% to 57.9%.

Going from `O=Cc1ccc(CO)o1` [PCM-0216119] to `CC(N)=NCc1cccc(CN)c1` [PCM-0215766], the inhibition at 10 µM rises from -2.3% to 13.1%.

Going from `N#CCNC(=O)c1ccc(-c2ccnc(Nc3ccc(N4CCOCC4)cc3)n2)cc1` [PCM-0095254] to `Cc1ccc(C(=O)Nc2ccc(CN3CCN(C)CC3)c(C(F)(F)F)c2)cc1C#Cc1cnc2[nH]ncc2c1` [PCM-0215209], the inhibition at 10 µM rises from 16.6% to 114%.

First: COc1ccc(CCNCC(O)COc2cccc(C)c2)cc1OC (stereo not shown) [PCM-0216046]
Second: COc1cc2ncc(-c3ccccc3)nc2cc1OC [PCM-0095612]
The inhibition at 10 µM of the first is higher: -4.6% for the first, -13.8% for the second.

Going from `C[C@@H]1CC[C@]2(C(=O)O[C@@H]3O[C@H](CO)[C@@H](O)[C@H](O)[C@H]3O)CC[C@]3(C)C(=CC[C@@H]4[C@@]5(C)CC[C@H](O[C@@H]6OC[C@H](O)[C@H](O)[C@H]6O)C(C)(C)[C@@H]5CC[C@]43C)[C@@H]2[C@]1(C)O` [PCM-0216435] to `NC[C@H]1O[C@H](O[C@H]2[C@H](O[C@@H]3O[C@H](CO)[C@@H](O)[C@H]3O)[C@@H](O)[C@H](N)C[C@@H]2N)[C@H](N)[C@@H](O)[C@@H]1O` [PCM-0215219], the inhibition at 10 µM rises from 7.7% to 25.5%.

Going from `COc1cc2nccc(Oc3ccc(NC(=O)Nc4cc(C)on4)c(Cl)c3)c2cc1OC` [PCM-0094927] to `COc1cc(-c2cn(C)c(=O)c3cnccc23)cc(OC)c1CN(C)C` [PCM-0215650], the inhibition at 10 µM falls from 84.1% to -3.1%.

First: OC[C@H]1O[C@@H](OCCc2ccc(O)cc2)[C@H](O)[C@@H](O)[C@@H]1O [PCM-0094523]
Second: COc1ccc([C@@H]2CC(=O)c3c(O)cc(O[C@@H]4O[C@H](CO)[C@@H](O)[C@H](O)[C@H]4O[C@@H]4O[C@@H](C)[C@H](O)[C@@H](O)[C@H]4O)cc3O2)cc1 [PCM-0216440]
The inhibition at 10 µM of the first is lower: -13.2% for the first, 2.3% for the second.

First: O=C(NNc1nc2cc(F)ccc2n2cccc12)c1cnccn1 [PCM-0215229]
Second: CC(C)C[C@H](NC(=O)[C@H](Cc1ccccc1)NC(=O)c1cnccn1)B(O)O [PCM-0094909]
The inhibition at 10 µM of the first is higher: 30.1% for the first, 8.6% for the second.

Compared with `CC1(C)C=Cc2cc(-c3coc4cc(O)ccc4c3=O)ccc2O1` [PCM-0216531], `CN(C)Cc1cccc(N=C(c2ccccc2)c2c(O)[nH]c3cc(C(N)=O)ccc23)c1` [PCM-0095090] is lower in inhibition at 10 µM: 28.6% for the first, 5.5% for the second.

First: Nc1nc2c(ncn2COC(CO)CO)c(=O)[nH]1 [PCM-0065253]
Second: CO[C@@H](C)Cn1c(=O)n(C)c2cnc3ccc(-c4cncc(C(C)(C)O)c4)cc3c21 [PCM-0215675]
The inhibition at 10 µM of the first is higher: -3.9% for the first, -11% for the second.

Going from `CC(C)CCCC(C)CCCC(C)CCCCC(C)CCCC(C)CCCC(C)C` (stereo not shown) [PCM-0216154] to `CCCCCCCCCCCCN1CCCCCC1=O` [PCM-0216037], the inhibition at 10 µM falls from 8.5% to -2.3%.

Compared with `CC(C)(C)OC(=O)N[C@H]1CCCCC/C=C\[C@@H]2C[C@@]2(C(=O)NS(=O)(=O)C2CC2)NC(=O)[C@@H]2C[C@@H](OC(=O)N3Cc4cccc(F)c4C3)CN2C1=O` [PCM-0214602], `O=C(C1CCCCC1)N1CC(=O)N2CCc3ccccc3C2C1` (stereo not shown) [PCM-0064807] is higher in inhibition at 10 µM: -12.5% for the first, -5.4% for the second.

Compared with `CC(C)(C)NS(=O)(=O)c1cncc(-c2cc(F)c3nc(N)nn3c2)c1` [PCM-0215240], `C[C@H](NC(=O)Cc1cc(F)cc(F)c1)C(=O)N[C@H](C(=O)OC(C)(C)C)c1ccccc1` [PCM-0095251] is lower in inhibition at 10 µM: -4.8% for the first, -29% for the second.

Compared with `O=C(/C=C/c1ccc(O)c(O)c1/C=C/c1ccc(O)c(O)c1)O[C@H](Cc1ccc(O)c(O)c1)C(=O)O` [PCM-0216354], `COc1cc(/C=C/C(=O)CC(=O)/C=C/c2ccc(O)c(OC)c2)ccc1O` [PCM-0091011] is higher in inhibition at 10 µM: 30.9% for the first, 102% for the second.

Going from `CN(C)C(=O)c1cc2cnc(Nc3ccc(N4CCNCC4)cn3)nc2n1C1CCCC1` [PCM-0215283] to `OC1CCC(Nc2ncc3nc(Nc4c(F)cc(F)cc4F)n([C@H]4CCOC4)c3n2)CC1` (stereo partly shown) [PCM-0214575], the inhibition at 10 µM falls from -7.7% to -10.3%.

Compared with `CO/N=C(\C(=O)N[C@@H]1C(=O)N2C(C(=O)O)=C(CSc3nnnn3C)CS[C@H]12)c1csc(N)n1` [PCM-0214827], `Cc1ccc2c(c1)C(=O)[C@]1(O)CCN(c3ccccc3)C1=N2` [PCM-0095585] is lower in inhibition at 10 µM: 8.6% for the first, -6.9% for the second.

Going from `Oc1cc(O)c2c(c1)OC(c1ccc(O)c(O)c1)C(OC1(c3ccc(O)c(O)c3)Oc3cc(O)cc(O)c3C(O)C1O)C2` (stereo not shown) [PCM-0215931] to `COc1ccc([C@@H]2CC(=O)c3c(O)cc(O[C@@H]4O[C@H](CO[C@@H]5O[C@@H](C)[C@H](O)[C@@H](O)[C@H]5O)[C@@H](O)[C@H](O)[C@H]4O)cc3O2)cc1` [PCM-0216487], the inhibition at 10 µM falls from 85.7% to -3.1%.

First: C=C[C@@H]1CNC(=S)O1 [PCM-0216374]
Second: CC1=NCC[C@@H](C(=O)O)N1 [PCM-0216558]
The inhibition at 10 µM of the first is higher: -6.2% for the first, -13.6% for the second.

Going from `O=S(=O)(CC1CS1)c1ccc(Oc2ccccc2)cc1` (stereo not shown) [PCM-0095742] to `COc1ccc(S(=O)(=O)N(C(C)=O)c2ccccc2/C=C/c2cc[n+]([O-])cc2)cc1` [PCM-0095165], the inhibition at 10 µM falls from 20.8% to -18.6%.

Compared with `O=C(O)CC(O)(CC(=O)OCc1ccc(O[C@@H]2O[C@H](CO)[C@@H](O)[C@H](O)[C@H]2O)cc1)C(=O)OCc1ccc(O[C@@H]2O[C@H](CO)[C@@H](O)[C@H](O)[C@H]2O)cc1` (stereo partly shown) [PCM-0216319], `O=C(NO)c1ccc(CC(=O)N(CCO)c2ccccc2)cc1` [PCM-0215415] is higher in inhibition at 10 µM: -28.6% for the first, 10.8% for the second.

First: CN(C)N(C)C(=O)[C@@]1(Cc2ccccc2)CCCN(C(=O)[C@@H](Cc2c[nH]c3ccccc23)NC(=O)C(C)(C)N)C1 [PCM-0215100]
Second: CC(C)(C)C(=O)N1N=CC[C@H]1c1ccccc1 [PCM-0216112]
The inhibition at 10 µM of the first is lower: 4.6% for the first, 13.8% for the second.

First: Cc1cccc(N(C)C(=S)Oc2ccc3ccccc3c2)c1 [PCM-0007505]
Second: Cc1cccc(Nc2nc(-c3ccncc3)cs2)c1 [PCM-0094960]
The inhibition at 10 µM of the first is higher: 4.7% for the first, -1.6% for the second.

First: C#C[C@]1(O)CC[C@H]2[C@@H]3CCC4=CC(=O)CC[C@@H]4[C@H]3CC[C@@]21C [PCM-0085792]
Second: CN(CC(=O)N(Cc1ccc(C2CCCCC2)cc1)c1ccc(C(=O)O)cc1)S(=O)(=O)c1c(F)c(F)c(F)c(F)c1F [PCM-0095763]
The inhibition at 10 µM of the first is lower: 3.1% for the first, 68.7% for the second.

First: c1ccc2c(c1)[I+]c1ccccc1-2 [PCM-0215888]
Second: Cc1cc(CN2CCN(c3c(Br)cnc4nc(-c5ccc(N6CCN(C)CC6)cc5)[nH]c34)CC2)no1 [PCM-0095479]
The inhibition at 10 µM of the first is lower: -0.7% for the first, 4.3% for the second.

`CO[C@H]1O[C@H](COS(=O)(=O)O)[C@@H](O[C@@H]2O[C@@H](C(=O)O)[C@@H](O[C@H]3O[C@H](COS(=O)(=O)O)[C@@H](O[C@@H]4O[C@H](C(=O)O)[C@@H](O[C@H]5O[C@H](COS(=O)(=O)O)[C@@H](O)[C@H](O)[C@H]5NS(=O)(=O)O)[C@H](O)[C@H]4O)[C@H](OS(=O)(=O)O)[C@H]3NS(=O)(=O)O)[C@H](O)[C@H]2OS(=O)(=O)O)[C@H](O)[C@H]1NS(=O)(=O)O` [PCM-0215897] showed an inhibition at 10 µM of -13.6%.
